Assay results from ChEMBL document CHEMBL2073813, “Regulation of renal oatp mRNA expression by testosterone” (Am J Physiol, 1996).

Assays:
[1] = biological target: T1, Solute carrier organic anion transporter family member 1A1 (Rattus norvegicus, UniProt P46720); assay: TP_TRANSPORTER: Northern blot; format: functional
T1 sequence (P46720 whole entry): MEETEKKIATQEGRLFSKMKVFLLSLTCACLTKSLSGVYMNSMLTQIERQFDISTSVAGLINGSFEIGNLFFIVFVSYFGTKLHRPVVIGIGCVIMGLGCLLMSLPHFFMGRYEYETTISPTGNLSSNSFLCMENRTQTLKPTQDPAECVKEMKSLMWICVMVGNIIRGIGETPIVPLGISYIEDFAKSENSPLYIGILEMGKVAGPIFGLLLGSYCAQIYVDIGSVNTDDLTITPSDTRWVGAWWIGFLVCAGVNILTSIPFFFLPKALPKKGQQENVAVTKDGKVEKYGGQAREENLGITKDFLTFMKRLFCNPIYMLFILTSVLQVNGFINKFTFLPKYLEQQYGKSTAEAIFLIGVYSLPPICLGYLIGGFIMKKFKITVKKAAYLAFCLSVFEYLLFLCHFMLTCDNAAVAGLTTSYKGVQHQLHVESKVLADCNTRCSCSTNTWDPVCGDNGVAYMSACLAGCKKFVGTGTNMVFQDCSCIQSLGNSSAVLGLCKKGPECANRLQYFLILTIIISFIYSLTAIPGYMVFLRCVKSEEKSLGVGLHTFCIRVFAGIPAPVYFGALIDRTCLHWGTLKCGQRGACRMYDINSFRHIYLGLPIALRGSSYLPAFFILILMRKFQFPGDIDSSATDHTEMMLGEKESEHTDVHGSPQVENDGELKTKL

[2] = biological target: T1, Solute carrier organic anion transporter family member 1A1; assay: TP_TRANSPORTER: Northern blot in vivo, kidney of SD rat; format: functional, organism-based, Sprague-Dawley

Row | SMILES | Activity [1] | Activity [2]
1 | C[C@]12CC[C@@H]3c4ccc(O)cc4CC[C@H]3[C@@H]1CC[C@@H]2O [ESTRADIOL] | inducer [+] | 
2 | C[C@]12CC[C@H]3[C@@H](CCC4=CC(=O)CC[C@@]43C)[C@@H]1CC[C@@H]2O [TESTOSTERONE] |  | inducer [+]
